Measured values published in PMC8997913, “Lichen Secondary Metabolites Inhibit the Wnt/β-Catenin Pathway in Glioblastoma Cells and Improve the Anticancer Effects of Temozolomide” (Cells, 2022).
One block for each compound: values may come before it.

How the values were obtained:
[1] = design: method as in PMID 34959693, PMID 33916370; settings: previous studies, ref [5],[14]; cited from earlier work
[2] = test system: Wnt/β-catenin pathway target genes in A-172 cells; test: qPCR of β-catenin and Wnt target genes, A-172; assay type: cell-based, human; settings: A-172, 48 h
Description: (§1) Based on the MTT test, the lichen secondary metabolite concentrations allowing the survival of more than 70% of cells were chosen for the subsequent experiments. The compounds were added as follows: A-172 cells—atranorin 25 µM, caperatic acid 50 µM, physodic acid 25 µM, squamatic acid 25 µM, salazinic acid 50 µM, and lecanoric acid 100 µM; T98G cells—atranorin 50 µM, caperatic acid 100 µM, physodic acid 25 µM, squamatic acid 50 µM, salazinic acid 100 µM, and lecanoric acid 100 µM; U-138 MG cells—atranorin 25 µM, caperatic acid 50 µM, physodic acid 25 µM, squamatic acid 50 µM, salazinic acid 50 µM, and lecanoric acid 100 µM. As far as the TMZ treatment is concerned, it was added in the concentrations depending on the MGMT expression and methylation status, i.e., TMZ 30 µM was added to the A-172 cell line, and TMZ 100 µM was added to both the T98G and U-138 MG cell lines. In the case of the 2D culture, the cells were treated with the compounds 24 h after seeding, whereas, in regard to 3D culture, 5 days were needed to form spheroids. All subsequent analyses were performed 48 h after treatment.
(§2) The Universal RNA Purification Kit (EURx, Gdańsk, Poland) was used for total RNA isolation from the A-172, T98G, and U-138 MG cells, and the Revert-Aid First Strand cDNA Synthesis kit (Fermentas, Burlington, ON, Canada) was chosen for cDNA synthesis. Quantitative real-time PCR (qPCR) was performed using Hot FIREPol EvaGreen qPCR Mix Plus (Solis Biodyne, Tartu, Estonia) and LightCycler 96 (Roche Diagnostics GmbH, Mannheim, Germany). Primer sequences were previously published and their synthesis was performed at the Institute of Biochemistry and Biophysics, Warsaw, Poland. The protocol started with 15 min enzyme activation at 95 °C, followed by 40 cycles of 95 °C for 15 s; appropriate annealing temperature for 20 s; 72 °C for 40 s and the final elongation at 72 °C for 5 min. Melting curve analysis was used to confirm the generation of a single amplification product. TATA box-binding protein (TBP), a component of the DNA-binding protein complex TFIID, served as the endogenous RNA control. The results were expressed as N-fold differences in the gene expression relative to the TBP gene. The ΔΔCt method was used for fold-change calculation. All samples were analyzed in triplicate, and the reaction was repeated at least twice.

[3] = test system: Wnt/β-catenin pathway target genes in T98G cells; test: qPCR of β-catenin and Wnt target genes, T98G; assay type: cell-based, human; settings: 48 h, mRNA vs DMSO control, single agent
Description: as §1, §2

[4] = Parallel artificial membrane permeability assay for the blood-brain barrier (PAMPA-BBB); assay type: in vitro ADME; settings: pH 7.4, 4 h, 37 °C, mean ± SEM, n = 3, Pe > 1.5 high, < 1.5 low permeation predicted, read-out: Pe × 10^−6
Description: The parallel artificial membrane permeability assay (PAMPA) for the blood-brain barrier (BBB) (Pion Inc., Billerica, MA, USA) was used to analyze whether the lichen secondary metabolites tested in this study were able to cross the BBB. The stock solutions (5 mg/mL) of tested compounds were prepared using DMSO. Next, the donor solution (24.75 μg/mL) using Prisma buffer (pH = 7.4; Prisma HT, Pion Inc., Billerica, MA, USA) were made. Firstly, 180 μL of the donor solution were added to the donor wells. Then the filter membranes were coated with 5 μL BBB-1 lipid solution (Pion Inc., Billerica, MA, USA) and the acceptor wells were filled with 200 μL BSB (Brain Sink Buffer, Pion Inc., Billerica, MA, USA). The plates were sandwiched together and incubated for 4 h at 37 °C (Thermo Scientific MaxQ 4450, Waltham, MA, USA). The results were determined by spectroscopic analysis (Multiskan GO microplate reader, Waltham, MA, USA), with the appropriate wavelength for a given compound (240 nm for […] salazinic acid, 250 nm for atranorin and squamatic acid, 263 nm for physodic acid, and 270 nm for lecanoric acid). […] Pe is the effective permeability coefficient (cm/s), VD-donor volume, VA-acceptor volume, Ceq-equilibrium concentration, Ceq=CD×VD+CA×VA/VD+VA , S-membrane area, and t-incubation time (in seconds). […] Samples were analyzed in triplicate, and the average was reported.

T98G cells [5] = test: ROS (superoxide) generation, flow cytometry, T98G; assay type: cell-based, human; settings: 48 h
Description: (§3) Based on the MTT test, the lichen secondary metabolite concentrations allowing the survival of more than 70% of cells were chosen for the subsequent experiments. The compounds were added as follows: A-172 cells—atranorin 25 µM, caperatic acid 50 µM, physodic acid 25 µM, squamatic acid 25 µM, salazinic acid 50 µM, and lecanoric acid 100 µM; T98G cells—atranorin 50 µM, caperatic acid 100 µM, physodic acid 25 µM, squamatic acid 50 µM, salazinic acid 100 µM, and lecanoric acid 100 µM; U-138 MG cells—atranorin 25 µM, caperatic acid 50 µM, physodic acid 25 µM, squamatic acid 50 µM, salazinic acid 50 µM, and lecanoric acid 100 µM. […]
The intracellular detection of superoxide radicals was detected by flow cytometric analysis after the staining with dihydroethidium, using The Muse® Oxidative Stress Kit (Merck, Darmstadt, Germany). Briefly, 100,000 cells per well were seeded on 6-well plates and after a 24 h incubation they were treated with the analyzed lichen secondary metabolites in the concentrations allowing >70% of cell survival; cells treated with DMSO were used as the negative control. […] The obtained data were evaluated using Muse® Analysis Software ver. […]

[6] = test system: Wnt/β-catenin pathway target genes in U-138 MG cells; test: qPCR of β-catenin and Wnt target genes, U-138 MG; assay type: cell-based, human; settings: 48 h; for NEDD9 expression: TMZ 100 µM
Description: as §1, §2

T98G cells [7] = test: Apoptosis, caspase-3/7 and 7-AAD flow cytometry, T98G; assay type: cell-based, human
Description: as §1
(§4) The fluorescent-based analysis of apoptosis using Muse® Caspase-3/7 Kit was performed in order to analyze the percentage of live, early, and late apoptotic; total apoptotic; and dead cells in A-172, T98G, and U-138 MG GBM cells treated with lichen secondary metabolites. The principle of the method relies on the measurement of the activity of executioner caspases, i.e., caspase-3 and caspase-7, as well as analyzing the integrity of the cell membrane with the use of a dead cell marker 7-AAD. Cell seeding and treatment followed the same protocol as for cell cycle or ROS generation analysis, while the subsequent procedures were performed according to the manufacturer’s recommendations.

U-138 MG cells [8] = test: Apoptosis, caspase-3/7 and 7-AAD flow cytometry, U-138 MG; assay type: cell-based, human; settings: 48 h
Description: as §1, §4

A-172 cells = settings: taken from the literature, ref [14]; read-out: IC50 [uM] ± SEM A-172; cited from earlier work
T98G cells [9] = settings: taken from the literature, ref [14]; read-out: IC50 [uM] ± SEM T98G; cited from earlier work
U-138 MG cells [10] = test system: U-138 MG cells; design: method as in PMID 33916370; settings: taken from the literature, ref [14]; read-out: IC50 [uM] ± SEM U-138 MG; cited from earlier work
[11] = test system: A375 melanoma cancer cells; design: method as in PMID 28012710; settings: ref [33]; cited from earlier work
[12] = test system: T98G cells-derived spheroids; test: Microarray expression study of T98G spheroids; assay type: cell-based, human; settings: 48 h, TMZ 100 µM, FC > abs. 2
Description: Moreover, the 3D culture of the T98G cell line was also established. The cells were cultured in ultra-low attachment microplates (Corning®, Corning, NY, USA) (1000 cell per well) to form spheroids. The standard medium was supplemented with Corning® Matrigel® Matrix for Organoid Culture (3.5%) (Corning®, Corning, NY, USA) and epidermal growth factor—EGF (10 ng/mL) (Stemcell Technologies, Vancouver, BC, Canada). Both 2D and 3D cell cultures were grown in a standard humidified incubator (Memmert, Schwabach, Germany) at 37 °C in 5% CO2 and 95% air atmosphere.
as §3
The obtained CEL files were further analyzed using the R statistical language and Bioconductor package, including the relevant Bioconductor libraries. […]

[13] = mRNA vs DMSO control, single agent, (TMZ 30 µM)
[14] = mRNA vs DMSO control, single agent

Compound: CC(=O)C1=C(O)C=C2Oc3c(C(C)=O)c(O)c(C)c(O)c3[C@]2(C)C1=O [(−)-usnic acid]
ability to cross the blood-brain barrier [1]: can cross the blood-brain barrier

Compound: Cn1ncnc2c(=O)n(C)c(=O)nc1-2 [PKF118-310, reference compound]
c-MYC expression [2, 13]: did not diminish
c-MYC expression [3]: did not diminish
BIRC5 expression ([3]; TMZ 100 µM): downregulated

Papp at 4 h, 24.75 µg/mL [4]: 3.9 ± 0.2 ×10⁻⁶ cm/s
Compound: CCCCCC(=O)Cc1cc(O)cc2c1C(=O)Oc1cc(O)c(C(=O)O)c(CCCCC)c1O2 [Physodic acid]
oxidative stress (superoxide) induction (T98G cells [5]): induce oxidative stress
CCND1 expression ([2]; co-treatment with TMZ 30 µM): upregulation
NEDD9 expression [2, 14]: downregulated
c-MYC expression [3]: downregulated
BIRC5 expression ([3]; TMZ 100 µM): downregulated
expression of the Wnt target genes ([6]; co-treatment with TMZ 100 µM): huge downregulatory effect
Axin2 expression [6, 14]: decreased
CCND1 expression [6, 14]: downregulated CCND1 expression by around half
NEDD9 expression [6, 14]: upregulated
number of apoptotic cells vs control (T98G cells [7]; 48 h, topotecan 100 nM): significant increase
apoptotic cells detected (T98G cells [7]; 48 h treatment): ~80%
effect on apoptosis (U-138 MG cells [8]): anti-apoptotic effect
IC50 (A-172 cells): 42.4 ± 1.25 µM
IC50 (T98G cells [9]): 50.6 ± 1.09 µM
IC50 (U-138 MG cells [10]): 45.7 ± 4.2 µM
apoptosis induction [11]: activated an apoptotic process
ability to cross the blood-brain barrier [1]: can cross the blood-brain barrier

Compound: Cn1nnc2c(C(N)=O)ncn2c1=O [TMZ, temozolomide]
Axin2 expression [2, 13]: upregulated
c-MYC expression [2, 13]: upregulated
Axin2 expression ([3]; TMZ 100 µM): downregulation
BIRC5 expression ([3]; TMZ 100 µM): downregulation
NEDD9 expression [6, 14]: downregulated
number of significantly downregulated genes vs control [12]: 46
number of significantly upregulated genes vs control [12]: 15

Compound: COc1cc(C)c(C(=O)Oc2cc(C)c(C(=O)O)c(O)c2)c(O)c1 [evernic acid]
ability to cross the blood-brain barrier [1]: can cross the blood-brain barrier
